Patent US6716833B2, “Acetylenic α-amino acid-based sulfonamide hydroxamic acid tace inhibitors” (priority 1999, dated 2004)
Structures can show the parent of a compound that is named as a salt. Where two headings read alike, the source gives them in different places.

Columns and labels:
Assay type in all cases: biochemical
MMP-1 = target: T1, MMP-1 (Homo sapiens, UniProt P03956); assay: MMP-1 inhibition (thiopeptide or fluorescent peptide substrate); conditions: read-out: MMP-1 IC50
T1 sequence (P03956 100-469): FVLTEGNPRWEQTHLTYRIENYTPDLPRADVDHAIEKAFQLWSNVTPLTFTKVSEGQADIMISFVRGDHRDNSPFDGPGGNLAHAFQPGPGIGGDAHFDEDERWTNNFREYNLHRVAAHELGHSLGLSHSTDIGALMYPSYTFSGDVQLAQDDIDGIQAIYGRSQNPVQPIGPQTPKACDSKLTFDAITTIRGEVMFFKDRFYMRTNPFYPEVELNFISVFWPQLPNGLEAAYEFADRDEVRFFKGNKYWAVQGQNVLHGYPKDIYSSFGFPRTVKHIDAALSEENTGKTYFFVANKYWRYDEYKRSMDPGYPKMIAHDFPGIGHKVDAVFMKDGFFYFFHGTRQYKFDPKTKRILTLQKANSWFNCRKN

[1] = target: TNF-α converting enzyme (TACE) (Homo sapiens, UniProt P78536); assay: TACE inhibition (fluorescent peptidyl substrate); conditions: read-out: TACE IC50
MMP-13 = MMP-13 (Homo sapiens, UniProt P45452); assay: MMP-13 inhibition (thiopeptide or fluorescent peptide substrate)
MMP-9 = MMP-9 (Homo sapiens, UniProt P14780); assay: MMP-9 inhibition (thiopeptide or fluorescent peptide substrate); conditions: read-out: MMP-9 IC50
[2] = Table 10, read-out: MMP-13 IC50
[3] = Table 11, read-out: MMP-13 IC50

TNF-α converting enzyme (TACE), sequence (P78536 215-824, species assumed): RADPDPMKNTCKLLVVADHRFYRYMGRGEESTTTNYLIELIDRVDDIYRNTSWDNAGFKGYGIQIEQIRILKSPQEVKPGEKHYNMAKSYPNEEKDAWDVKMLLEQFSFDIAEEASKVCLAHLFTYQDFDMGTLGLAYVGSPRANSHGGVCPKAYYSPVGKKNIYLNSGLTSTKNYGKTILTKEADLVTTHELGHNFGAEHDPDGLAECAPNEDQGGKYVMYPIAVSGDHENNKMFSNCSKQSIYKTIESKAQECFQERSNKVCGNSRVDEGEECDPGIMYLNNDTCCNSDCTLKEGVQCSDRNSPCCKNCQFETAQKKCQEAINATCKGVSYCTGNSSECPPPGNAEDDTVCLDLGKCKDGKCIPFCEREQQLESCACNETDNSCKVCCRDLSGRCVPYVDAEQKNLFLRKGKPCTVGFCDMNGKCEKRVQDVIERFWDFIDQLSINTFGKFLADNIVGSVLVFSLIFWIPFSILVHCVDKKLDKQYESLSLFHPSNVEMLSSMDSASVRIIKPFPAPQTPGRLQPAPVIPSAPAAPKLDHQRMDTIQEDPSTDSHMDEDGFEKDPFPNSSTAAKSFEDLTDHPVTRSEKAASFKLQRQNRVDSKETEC
MMP-9, sequence (P14780 94-707): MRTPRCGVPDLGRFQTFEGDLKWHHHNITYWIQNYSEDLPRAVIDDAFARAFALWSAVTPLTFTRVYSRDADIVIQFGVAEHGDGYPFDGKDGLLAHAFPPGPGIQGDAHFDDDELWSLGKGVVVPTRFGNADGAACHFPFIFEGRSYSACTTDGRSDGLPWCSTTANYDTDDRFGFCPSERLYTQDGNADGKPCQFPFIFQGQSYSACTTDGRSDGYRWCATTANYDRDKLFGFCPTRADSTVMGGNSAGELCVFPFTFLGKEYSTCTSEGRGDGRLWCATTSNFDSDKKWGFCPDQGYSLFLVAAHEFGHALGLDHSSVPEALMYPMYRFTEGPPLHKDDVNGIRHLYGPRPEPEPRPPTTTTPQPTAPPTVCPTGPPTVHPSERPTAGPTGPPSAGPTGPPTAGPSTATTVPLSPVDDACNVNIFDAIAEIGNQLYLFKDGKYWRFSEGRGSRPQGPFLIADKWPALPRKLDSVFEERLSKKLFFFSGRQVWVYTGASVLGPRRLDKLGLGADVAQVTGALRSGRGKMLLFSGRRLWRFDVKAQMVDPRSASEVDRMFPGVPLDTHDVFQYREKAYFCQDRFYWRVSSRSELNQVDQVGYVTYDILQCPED

| Compound | IC50 (MMP-1; Table 10) [nM] | IC50 ([1]; Table 10) [nM] | IC50 (MMP-13; [2]) [nM] | IC50 (MMP-9; Table 10) [nM] | IC50 (MMP-1) [nM] | IC50 [1] [nM] | IC50 (MMP-13; read-out: MMP-13 IC50) [nM] | IC50 (MMP-9) [nM] | also measured |
| --- | --- | --- | --- | --- | --- | --- | --- | --- | --- |
| CC#CCOc1ccc(S(=O)(=O)N2CCN(C(=O)Nc3ccc(F)cc3)CC2C(=O)NO)cc1 (stereo not drawn) [Example 222, 4-{[4-(2-Butynyloxy)phenyl]sulfonyl}-N-1-(4-fluorophenyl)-N-3-hydroxy-1,3-piperazinedicarboxamide] | – | – | – | – | 941 | 30 | 75 | 173 | – |
| CC#CCOc1ccc(S(=O)(=O)N2CCN(C(=O)Nc3cc(Cl)cc(Cl)c3)CC2C(=O)NO)cc1 (stereo not drawn) [Example 223, 4-{[4-(2-Butynyloxy)phenyl]sulfonyl}-N-1-(3,5-dichlorophenyl)-N-3-hydroxy-1,3-piperazinedicarboxamide] | – | – | – | – | 1720 | 83 | 153 | 642 | – |
| CC#CCOc1ccc(S(=O)(=O)N2CCN(C(C)=O)CC2C(=O)NO)cc1 (stereo not drawn) [Example 224, 4-Acetyl-1-(4-but-2-ynyloxy-benzenesulfonyl)-piperazine-2-carboxylic Acid Hydroxyamide] | – | – | – | – | 357 | 13 | 22 | 88 | – |
| CC#CCOc1ccc(S(=O)(=O)N2CCN(C(=O)CC)CC2C(=O)NO)cc1 (stereo not drawn) [Example 225, 1-(4-but-2-ynyloxy-Benzenesulfonyl)-4-propionyl-piperazine-2-carboxylic Acid Hydroxyamide] | – | – | – | – | 1000 | 17 | 230 | 727 | – |
| CC#CCOc1ccc(S(=O)(=O)N2CCN(C(=O)CNC(=O)OC(C)(C)C)CC2C(=O)NO)cc1 (stereo not drawn) [Example 229, {2-[4-(4-but-2-ynyloxy-Benzenesulfonyl)-3-hydroxycarbamoyl-piperazin-1-yl]-2-oxo-ethyl}-carbamic Acid tert-Butyl Ester] | – | – | – | – | 1010 | 64 | 85 | 322 | – |
| CC#CCOc1ccc(S(=O)(=O)N2CCN(C(=O)CN)CC2C(=O)NO)cc1 (stereo not drawn) [Example 230, 4-Aminoacetyl-1-(4-but-2-ynyloxy-benzenesulfonyl)-piperazine-2-carboxylic Acid Hydroxyamide] | – | – | – | – | 8500 | 127 | 410 | 1230 | – |
| CC#CCOc1ccc(S(=O)(=O)N2CCN(C(=O)C3(C)COC(C)(C)OC3)CC2C(=O)NO)cc1 (stereo not drawn) [Example 231, 1-{[4-(2-Butynyloxy)phenyl]sulfonyl}-N-hydroxy-4-[(2,2,5-trimethyl-1,3-dioxan-5-yl)carbonyl]-2-piperazinecarboxamide] | – | – | – | – | 2450 | 59 | 355 | 1110 | – |
| CC#CCOc1ccc(S(=O)(=O)N2CCN(C(=O)C(C)(CO)CO)CC2C(=O)NO)cc1 (stereo not drawn) [Example 232, 1-{[4-(2-Butynyloxy)phenyl]sulfonyl}-N-hydroxy-4-[3-hydroxy-2-(hydroxymethyl)-2-methylpropanoyl]-2-piperazinecarboxamide] | – | – | – | – | 1680 | 44 | 289 | 785 | – |
| CC#CCOc1ccc(S(=O)(=O)N2CCN(Cc3ccc(Br)cc3)CC2C(=O)NO)cc1 (stereo not drawn) [Example 233, 4-(4-Bromo-benzyl)-1-(4-but-2-ynyloxy-benzenesulfonyl)-piperazine-2-carboxylic Acid Hydroxyamide] | – | – | – | – | 2830 | 184 | 55 | 69 | – |
| CC#CCOc1ccc(S(=O)(=O)N2CCN(Cc3cccnc3)CC2C(=O)NO)cc1 (stereo not drawn) [Example 234, 1-(4-but-2-ynyloxy-Benzenesulfonyl)-4-pyridin-3-ylmethyl-piperazine-2-carboxylic Acid Hydroxyamide] | – | – | – | – | 3200 | 28 | – | 108 | IC50 (MMP-13; MMP-13 IC50): 49 nM |
| CC#CCOc1ccc(S(=O)(=O)N2CCS(=O)(=O)C(C)(C)[C@@H]2C(=O)NO)cc1 [Example 257, (3S)-4-{[4-(2-Butynyloxy)phenyl]sulfonyl}-N-hydroxy-2,2-dimethyl-3-thiomorpholine Carboxamide 1,1-Dioxide] | – | – | – | – | – | – | – | – | IC50 (MMP-1; Table 9): 24 nM; IC50 ([1]; Table 9): 24 nM; IC50 (MMP-13; Table 9, read-out: MMP-13 IC50): 23 nM; IC50 (MMP-9; Table 9): 64 nM |
| CC#CCOc1ccc(S(=O)(=O)N2C[C@H](C)SC(C)(C)[C@@H]2C(=O)NO)cc1 [Example 272, (3S,6S)-4-{[4-(2-Butynyloxy)phenyl]sulfonyl}-N-hydroxy-2,2,6-trimethyl-3-thiomorpholinecarboxamide] | – | – | – | – | – | – | – | – | IC50 (MMP-1; Table 11): 7.8 nM; IC50 ([1]; Table 11): 24 nM; IC50 (MMP-13; [3]): 8.7 nM; IC50 (MMP-9; Table 11): 166 nM |
| CC#CCOc1ccc(S(=O)(=O)N2C[C@@H](CN)SC(C)(C)[C@@H]2C(=O)NO)cc1 [Example 275, (3S,6R)-trans-6-(Aminomethyl)-4-{[4-(2-butynyloxy)phenyl]sulfonyl}-N-hydroxy-2,2-dimethyl-3-thiomorpholinecarboxamide Hydrochloride] | – | – | – | – | – | – | – | – | IC50 (MMP-1; Table 11): 30 nM; IC50 ([1]; Table 11): 128 nM; IC50 (MMP-13; [3]): 16 nM; IC50 (MMP-9; Table 11): 22 nM |

Now from value to compound, other results behind:

| IC50 (MMP-1; Table 10) [nM] | IC50 ([1]; Table 10) [nM] | IC50 (MMP-13; [2]) [nM] | IC50 (MMP-9; Table 10) [nM] | Compound | IC50 (MMP-1) [nM] | IC50 [1] [nM] | IC50 (MMP-13; read-out: MMP-13 IC50) [nM] | IC50 (MMP-9) [nM] | also measured |
| --- | --- | --- | --- | --- | --- | --- | --- | --- | --- |
| 194 | 87 | 4.1 | 178 | CC1(C)SCCN(S(=O)(=O)c2ccc(OCC#CCCOC3CCCCO3)cc2)C1C(=O)NO (stereo not drawn) [Example 243, N-Hydroxy-2,2-dimethyl-4-[(4-{[5-(tetrahydro-2H-pyran-2-yloxy)-2-pentynyl]oxy}phenyl)sulfonyl]-3-thiomorpholine Carboxamide] | – | – | – | – | – |
| 35 | 62 | 14 | 72 | CC1(C)SCCN(S(=O)(=O)c2ccc(OCC#CCCO)cc2)C1C(=O)NO (stereo not drawn) [Example 244, N-Hydroxy-4-({4-[(5-hydroxy-2-pentynyl)oxy]phenyl}sulfonyl)-2,2-dimethyl-3-thiomorpholine Carboxamide] | – | – | – | – | – |
| 300 | 112 | 6.6 | 2380 | CC(C)(C)OC(=O)NCCC#CCOc1ccc(S(=O)(=O)N2CCSC(C)(C)C2C(=O)NO)cc1 (stereo not drawn) [Example 245, tert-Butyl 5-[4-({3-[(Hydroxyamino)carbonyl]-2,2-dimethyl-4-thiomorpholinyl}sulfonyl)phenoxy]-3-pentynylcarbamate] | – | – | – | – | – |
| 1050 | 138 | 27 | 41 | CC1(C)SCCN(S(=O)(=O)c2ccc(OCC#CCCN)cc2)C1C(=O)NO (stereo not drawn) [Example 246, 4-({4-[(5-Amino-2-pentynyl)oxy]phenyl}sulfonyl)-N-hydroxy-2,2-dimethyl-3-thiomorpholine Carboxamide] | – | – | – | – | – |
| 53 | 160 | 2.5 | 108 | CC1(C)SCCN(S(=O)(=O)c2ccc(OCC#CCOCc3ccccc3)cc2)C1C(=O)NO (stereo not drawn) [Example 247, 4-[(4-{[4-(Benzyloxy)-2-butynyl]oxy}phenyl)sulfonyl]-N-hydroxy-2,2-dimethyl-3-thiomorpholine Carboxamide] | – | – | – | – | – |
| 98 | 92 | 7.3 | 48 | CC1(C)SCCN(S(=O)(=O)c2ccc(OCC#CCCCOC3CCCCO3)cc2)C1C(=O)NO (stereo not drawn) [Example 248, N-Hydroxy-2,2-dimethyl-4-[(4-{[6-(tetrahydro-2H-pyran-2-yloxy)-2-hexynyl]oxy}phenyl)sulfonyl]-3-thiomorpholine Carboxamide] | – | – | – | – | – |
| 159 | 40 | 86 | 377 | CC1(C)SCCN(S(=O)(=O)c2ccc(OCC#CCCCO)cc2)C1C(=O)NO (stereo not drawn) [Example 249, N-Hydroxy-4-({4-[(6-hydroxy-2-hexynyl)oxy]phenyl}sulfonyl)-2,2-dimethyl-3-thiomorpholine Carboxamide] | – | – | – | – | – |
| 42 | 153 | 1.7 | 160 | CC(C)(C)OC(=O)NCCCC#CCOc1ccc(S(=O)(=O)N2CCSC(C)(C)[C@@H]2C(=O)NO)cc1 [Example 250, tert-Butyl 6-[4-({(3S)-3-[(Hydroxyamino)carbonyl]-2,2-dimethylthiomorpholinyl}sulfonyl)phenoxy]-4-hexynylcarbamate] | – | – | – | – | – |
| 226 | 28 | 8.7 | 28 | CC1(C)SCCN(S(=O)(=O)c2ccc(OCC#CCCCN)cc2)[C@H]1C(=O)NO [Example 251, (3S)-4-({4-[(6-Amino-2-hexynyl)oxy]phenyl}sulfonyl)-N-hydroxy-2,2-dimethyl-3-thiomorpholine Carboxamide] | – | – | – | – | – |
| 26 | 74 | 4 | 31 | CC(C)(C)OC(=O)NCC#CCOc1ccc(S(=O)(=O)N2CCSC(C)(C)C2C(=O)NO)cc1 (stereo not drawn) [Example 266, tert-Butyl 4-[4-({3-[(Hydroxyamino)carbonyl]-2,2-dimethyl-4-thiomorpholinyl}sulfonyl)phenoxy]-2-butynylcarbamate] | – | – | – | – | – |
| 364 | 112 | 37 | 1260 | CN(CC#CCOc1ccc(S(=O)(=O)N2CCSC(C)(C)C2C(=O)NO)cc1)C(=O)OC(C)(C)C (stereo not drawn) [Example 267, tert-Butyl 4-[4-({3-[(Hydroxyamino)carbonyl]-2,2-dimethyl-4-thiomorpholinyl}sulfonyl)phenoxy]-2-butynyl(methyl)carbamate] | – | – | – | – | – |
